From PubChem BioAssay (NCI)
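Five concentrations, 48 hours, 96-well plates. Definition used: TGI = concentration required for complete inhibition of growth.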

Tests used:
Test in all cases: NCI tumour cell line growth inhibition, 48 h
[1] = system: SR leukemia
[2] = system: OVCAR-8 ovarian
[3] = system: XF 498 CNS
[4] = system: NCI-H23 lung
[5] = system: CCRF-CEM leukemia
[6] = system: HCT-116 colon
[7] = system: LXFL 529 NSCLC
[8] = system: SN12C renal
[9] = system: OVCAR-5 ovarian
[10] = system: IGROV1 ovarian
[11] = system: M19-MEL melanoma
[12] = system: HCC-2998 colon
[13] = system: CAKI-1 renal
[14] = system: NCI-H460 lung
[15] = system: HT29 colon
[16] = system: EKVX NSCLC
[17] = system: HOP-62 NSCLC
[18] = system: TK-10 renal
[19] = system: UO-31 renal
[20] = system: MALME-3M melanoma
[21] = system: HCT-15 colon
[22] = system: SF-295 CNS
[23] = system: OVCAR-4 ovarian
[24] = system: COLO 205 colon
[25] = system: 786-0 renal
[26] = system: HOP-18 NSCLC
[27] = system: DMS 273 small cell lung
[28] = system: HOP-92 NSCLC
[29] = system: SK-MEL-2 melanoma
[30] = system: U251 CNS
[31] = system: SW-620 colon
[32] = system: ACHN renal
[33] = system: SF-268 CNS
[34] = system: NCI-H522 lung
[35] = system: SNB-75 CNS
[36] = system: M14 melanoma
[37] = system: UACC-257 melanoma
[38] = system: SK-MEL-5 melanoma
[39] = system: LOX IMVI melanoma
[40] = system: OVCAR-3 ovarian
[41] = system: KM20L2 colon
[42] = system: SK-OV-3 ovarian
[43] = system: SNB-19 CNS
[44] = system: HL-60(TB) leukemia
[45] = system: RXF 393 renal
[46] = system: RPMI-8226 leukemia
[47] = system: K-562 leukemia
[48] = system: SK-MEL-28 melanoma
[49] = system: SF-539 CNS
[50] = system: A549 NSCLC
[51] = system: MOLT-4 leukemia
[52] = system: DLD-1 colon
[53] = system: DMS 114 small cell lung
[54] = system: SNB-78 CNS
[55] = system: UACC-62 melanoma
[56] = system: NCI-H226 lung
[57] = system: KM12 colon
[58] = system: A498 renal

With `COC(=O)CC[C@@H](NC(=O)C(C)NC(=O)COC1C(O)C(COC(=O)CCCCCCCCCCNC(=O)c2ccc([N+](=O)[O-])c3[nH]c4cc(Br)ccc4c(=O)c23)OC(OCc2ccccc2)C1NC(C)=O)C(N)=O` (some centres not stated) the TGI [1] was greater than 100 µM, the TGI [2] was greater than 100 µM and the TGI [3] was greater than 100 µM. For the same compound, the TGI [4] was greater than 100 µM, the TGI [5] was greater than 100 µM and the TGI [6] was greater than 100 µM. For the same compound, the TGI [7] was 66.3 µM, the TGI [8] was greater than 100 µM and the TGI [9] was greater than 100 µM. The TGI [10] was 49.8 µM, the TGI [11] was greater than 100 µM and the TGI [12] was 93.2 µM. For the same compound, the TGI [13] was greater than 100 µM, the TGI [14] was greater than 100 µM and the TGI [15] was greater than 100 µM. For the same compound, the TGI [16] was greater than 100 µM, the TGI [17] was greater than 100 µM and the TGI [18] was greater than 100 µM. The TGI [19] was greater than 100 µM, the TGI [20] was greater than 100 µM and the TGI [21] was greater than 100 µM. For the same compound, the TGI [22] was greater than 100 µM, the TGI [23] was greater than 100 µM and the TGI [24] was greater than 100 µM. The TGI [25] was greater than 100 µM, the TGI [26] was greater than 100 µM and the TGI [27] was greater than 100 µM. For the same compound, the TGI [28] was greater than 100 µM, the TGI [29] was greater than 100 µM and the TGI [30] was greater than 100 µM. It also gave a TGI [31] greater than 100 µM, a TGI [32] greater than 100 µM and a TGI [33] greater than 100 µM. The TGI [34] was greater than 100 µM, the TGI [35] was greater than 100 µM and the TGI [36] was greater than 100 µM. It also gave a TGI [37] greater than 100 µM, a TGI [38] greater than 100 µM and a TGI [39] greater than 100 µM. For the same compound, the TGI [40] was greater than 100 µM, the TGI [41] was greater than 100 µM and the TGI [42] was greater than 100 µM. The TGI [43] was greater than 100 µM, the TGI [44] was 51.4 µM and the TGI [45] was 80.3 µM. The TGI [46] was greater than 100 µM, the TGI [47] was greater than 100 µM and the TGI [48] was greater than 100 µM. For the same compound, the TGI [49] was greater than 100 µM, the TGI [50] was greater than 100 µM and the TGI [51] was greater than 100 µM. The TGI [52] was greater than 100 µM, the TGI [53] was greater than 100 µM and the TGI [54] was greater than 100 µM. It also gave a TGI [55] greater than 100 µM, a TGI [56] of 98 µM and a TGI [57] greater than 100 µM.

`N#CC1(Cc2ccccc2Cl)c2ccccc2C=CN1C(=O)c1ccccc1` (configuration not stated) was tested, and the TGI [1] was greater than 100 µM, the TGI [2] was greater than 100 µM and the TGI [3] was greater than 100 µM. The TGI [4] was greater than 100 µM, the TGI [5] was greater than 100 µM and the TGI [6] was greater than 100 µM. For the same compound, the TGI [7] was greater than 100 µM, the TGI [8] was greater than 100 µM and the TGI [9] was greater than 100 µM. It also gave a TGI [10] greater than 100 µM, a TGI [11] greater than 100 µM and a TGI [12] greater than 100 µM. For the same compound, the TGI [15] was greater than 100 µM, the TGI [16] was greater than 100 µM and the TGI [17] was greater than 100 µM. It also gave a TGI [18] greater than 100 µM, a TGI [19] greater than 100 µM and a TGI [20] greater than 100 µM. It also gave a TGI [21] greater than 100 µM, a TGI [22] greater than 100 µM and a TGI [24] greater than 100 µM. It also gave a TGI [25] greater than 100 µM, a TGI [26] greater than 100 µM and a TGI [27] greater than 100 µM. The TGI [28] was greater than 100 µM, the TGI [29] was greater than 100 µM and the TGI [30] was greater than 100 µM. For the same compound, the TGI [31] was greater than 100 µM, the TGI [32] was greater than 100 µM and the TGI [33] was greater than 100 µM. For the same compound, the TGI [34] was greater than 100 µM, the TGI [35] was greater than 100 µM and the TGI [36] was greater than 100 µM. For the same compound, the TGI [37] was greater than 100 µM, the TGI [38] was greater than 100 µM and the TGI [39] was greater than 100 µM. The TGI [40] was greater than 100 µM, the TGI [41] was greater than 100 µM and the TGI [42] was greater than 100 µM. For the same compound, the TGI [43] was greater than 100 µM, the TGI [44] was greater than 100 µM and the TGI [45] was greater than 100 µM. The TGI [46] was greater than 100 µM, the TGI [47] was greater than 100 µM and the TGI [48] was greater than 100 µM. The TGI [49] was greater than 100 µM, the TGI [50] was greater than 100 µM and the TGI [51] was greater than 100 µM. The TGI [53] was greater than 100 µM, the TGI [54] was greater than 100 µM and the TGI [55] was greater than 100 µM. It also gave a TGI [56] greater than 100 µM, a TGI [58] greater than 100 µM and a TGI [57] greater than 100 µM.

For `CCOc1cccc2cccnc12`, the TGI [2] was greater than 100 µM, the TGI [3] was greater than 100 µM and the TGI [4] was greater than 100 µM. For the same compound, the TGI [5] was greater than 100 µM, the TGI [6] was greater than 100 µM and the TGI [7] was greater than 100 µM. It also gave a TGI [8] greater than 100 µM, a TGI [9] greater than 100 µM and a TGI [10] greater than 100 µM. It also gave a TGI [12] greater than 100 µM, a TGI [14] greater than 100 µM and a TGI [15] greater than 100 µM. The TGI [16] was greater than 100 µM, the TGI [17] was greater than 100 µM and the TGI [18] was greater than 100 µM. The TGI [19] was greater than 100 µM, the TGI [20] was greater than 100 µM and the TGI [22] was greater than 100 µM. It also gave a TGI [23] greater than 100 µM, a TGI [24] greater than 100 µM and a TGI [25] greater than 100 µM. It also gave a TGI [26] greater than 100 µM, a TGI [28] greater than 100 µM and a TGI [31] greater than 100 µM. For the same compound, the TGI [32] was greater than 100 µM, the TGI [33] was greater than 100 µM and the TGI [34] was greater than 100 µM. It also gave a TGI [35] greater than 100 µM, a TGI [36] greater than 100 µM and a TGI [37] greater than 100 µM. It also gave a TGI [38] greater than 100 µM, a TGI [39] greater than 100 µM and a TGI [40] greater than 100 µM. It also gave a TGI [41] greater than 100 µM, a TGI [42] greater than 100 µM and a TGI [43] greater than 100 µM. It also gave a TGI [44] greater than 100 µM, a TGI [45] greater than 100 µM and a TGI [46] greater than 100 µM. The TGI [47] was greater than 100 µM, the TGI [48] was greater than 100 µM and the TGI [49] was greater than 100 µM. For the same compound, the TGI [50] was greater than 100 µM, the TGI [51] was greater than 100 µM and the TGI [52] was greater than 100 µM. For the same compound, the TGI [53] was greater than 100 µM, the TGI [55] was greater than 100 µM and the TGI [56] was greater than 100 µM. The TGI [57] was greater than 100 µM.

Compound `CCCCc1c2c(nc3c1CCc1cc(C=O)c(N)nc1-3)/C(=C/c1ccccc1)CCC2` has a TGI [1] greater than 100 µM, a TGI [2] greater than 100 µM and a TGI [3] greater than 100 µM. The TGI [4] was greater than 100 µM, the TGI [5] was greater than 100 µM and the TGI [6] was greater than 100 µM. It also gave a TGI [7] greater than 100 µM, a TGI [8] greater than 100 µM and a TGI [9] greater than 100 µM. It also gave a TGI [10] greater than 100 µM, a TGI [11] greater than 100 µM and a TGI [12] of 45.1 µM. For the same compound, the TGI [13] was greater than 100 µM, the TGI [14] was greater than 100 µM and the TGI [15] was greater than 100 µM. For the same compound, the TGI [16] was greater than 100 µM, the TGI [17] was greater than 100 µM and the TGI [18] was greater than 100 µM. The TGI [19] was greater than 100 µM, the TGI [20] was greater than 100 µM and the TGI [21] was greater than 100 µM. It also gave a TGI [22] greater than 100 µM, a TGI [23] greater than 100 µM and a TGI [24] of 32.3 µM. The TGI [25] was greater than 100 µM, the TGI [26] was greater than 100 µM and the TGI [27] was greater than 100 µM. It also gave a TGI [28] greater than 100 µM, a TGI [29] greater than 100 µM and a TGI [30] greater than 100 µM. The TGI [31] was greater than 100 µM, the TGI [32] was greater than 100 µM and the TGI [33] was greater than 100 µM. For the same compound, the TGI [34] was greater than 100 µM, the TGI [35] was greater than 100 µM and the TGI [36] was greater than 100 µM. The TGI [37] was greater than 100 µM, the TGI [38] was greater than 100 µM and the TGI [39] was greater than 100 µM. The TGI [40] was greater than 100 µM, the TGI [41] was greater than 100 µM and the TGI [42] was greater than 100 µM. For the same compound, the TGI [43] was greater than 100 µM, the TGI [44] was greater than 100 µM and the TGI [45] was greater than 100 µM. The TGI [46] was greater than 100 µM, the TGI [47] was greater than 100 µM and the TGI [48] was greater than 100 µM. For the same compound, the TGI [49] was greater than 100 µM, the TGI [50] was 61.5 µM and the TGI [51] was greater than 100 µM. The TGI [53] was greater than 100 µM, the TGI [54] was greater than 100 µM and the TGI [55] was greater than 100 µM. For the same compound, the TGI [56] was greater than 100 µM, the TGI [58] was 47.5 µM and the TGI [57] was greater than 100 µM.
